Where “and” joins values, the source holds several entries; their conditions need not be identical. Identical values can stand only once.
Columns and labels:
many bacteria = conditions: Shima et al., 1984; Hiraki, 2000; cited from earlier work
Listeria monocytogenes [1] = assay: L. monocytogenes on cooked ground turkey balls blended with ε-polylysine, with or without 5 second acidic adjuvant spray, incubated at 8° C., CFU determination; format: cell-based; conditions: for Log Reduction: vs control
Method: Four groups of 20 g ground uncooked turkey balls were prepared, with 54 balls prepared per group. […] Groups B-D were blended with varying amounts of ε-polylysine (“ε-PL”). Final concentrations of ε-polylysine within the turkey balls were:
After preparation, all meatballs were placed on baking sheets and baked in a conventional oven at 350° F. for 20 minutes. After baking, the meatballs were packaged separately and stored at 4° C.
The mixture was further diluted 1:5000 times with sterile saline to produce a suspension for use. […] 20 microliters of the Listeria monocytogenes suspension was inoculated onto the exterior of each turkey ball. The turkey balls were incubated at room temperature for 30 min post-inoculation to allow bacteria to attach.
Each group of meatballs (54 per group) was divided into two groups of 27 meatballs and labeled as control or treated meatballs as follows: AC, AT, BC, BT, CC, CT, DC and DT, respectively. Control meatballs labeled AC, BC, CC, and DC were sprayed for 5 seconds with sterile water. Treated meatballs labeled AT, BT, CT and DT were sprayed for 5 seconds with the acidic adjuvant prepared in Example 4 above (Safe2O®brandRTE 01, Mionix Corporation, Rocklin, Calif.) diluted 2 parts water to 1 part solution, having a final pH of about 1.5. After the spray treatment, the meatballs were packaged individually, vacuum sealed and incubated at 8° C.
The microbiological assay was performed after 24 hours, 1 week, 2 weeks, 3 weeks, and 4 weeks. After each designated time period had passed, three bags from each group of meat balls were unpacked, transferred to a stomacher bag along with 20 ml of sterile 0.1% peptone water. Each meatball was hand crushed and stomached at high speed for 2 minutes.

Listeria monocytogenes [2] = assay: Listeria monocytogenes on boiled dumpling sheets with ε-polylysine in the dough, vacuum sealed, 10° C., CFU determination; conditions: for Log Reduction: vs control Group A

poly(imino(2-amino-1-oxo-1,6-hexanediyl)) [ε-PL]
minimum inhibitory concentration (MIC) for the growth of many bacteria (many bacteria): below 100 μg mL^−1
average Log Value (Listeria monocytogenes [1]; 1000 ppm ε-PL, after 1 week): 5.38
average of CFU/g (Listeria monocytogenes [1]; 1000 ppm ε-PL, after 1 week): 2.41E+05 CFU/g
Log Reduction (Listeria monocytogenes [1]; 1000 ppm ε-PL, after 1 week): 2.99
average Log Value (Listeria monocytogenes [1]; 1000 ppm ε-PL, after 2 weeks): 4.76
average of CFU/g (Listeria monocytogenes [1]; 1000 ppm ε-PL, after 2 weeks): 5.72E+04 CFU/g
Log Reduction (Listeria monocytogenes [1]; 1000 ppm ε-PL, after 2 weeks): 4.09
average Log Value (Listeria monocytogenes [1]; 1000 ppm ε-PL, after 3 weeks): 5.94
average of CFU/g (Listeria monocytogenes [1]; 1000 ppm ε-PL, after 3 weeks): 8.75E+05 CFU/g
average Log Value (Listeria monocytogenes [1]; 1000 ppm ε-PL, after 4 weeks): 6.67
average of CFU/g (Listeria monocytogenes [1]; 1000 ppm ε-PL, after 4 weeks): 4.64E+06 CFU/g
Log Reduction (Listeria monocytogenes [1]; 1000 ppm ε-PL, after 4 weeks): 1.91
average Log Value (Listeria monocytogenes [1]; 1000 ppm ε-PL, after 24 hours): 2.22
average of CFU/g (Listeria monocytogenes [1]; 1000 ppm ε-PL, after 24 hours): 1.67E+02 CFU/g
Log Reduction (Listeria monocytogenes [1]; 1000 ppm ε-PL, after 24 hours): 1.48
average Log Value (Listeria monocytogenes [1]; 2000 ppm ε-PL, after 1 week): 1.40
average of CFU/g (Listeria monocytogenes [1]; 2000 ppm ε-PL, after 1 week): 2.53E+01 CFU/g
Log Reduction (Listeria monocytogenes [1]; 2000 ppm ε-PL, after 1 week): 6.97
average Log Value (Listeria monocytogenes [1]; 2000 ppm ε-PL, after 2 weeks): 4.27
average of CFU/g (Listeria monocytogenes [1]; 2000 ppm ε-PL, after 2 weeks): 1.88E+04 CFU/g
Log Reduction (Listeria monocytogenes [1]; 2000 ppm ε-PL, after 2 weeks): 4.57
average Log Value (Listeria monocytogenes [1]; 2000 ppm ε-PL, after 3 weeks): 2.95
average of CFU/g (Listeria monocytogenes [1]; 2000 ppm ε-PL, after 3 weeks): 8.96E+02 CFU/g
Log Reduction (Listeria monocytogenes [1]; 2000 ppm ε-PL, after 3 weeks): 5.33
average Log Value (Listeria monocytogenes [1]; 2000 ppm ε-PL, after 4 weeks): 3.86
average of CFU/g (Listeria monocytogenes [1]; 2000 ppm ε-PL, after 4 weeks): 7.18E+03 CFU/g
Log Reduction (Listeria monocytogenes [1]; 2000 ppm ε-PL, after 4 weeks): 4.72
average Log Value (Listeria monocytogenes [1]; 2000 ppm ε-PL, after 24 hours): 1.36
average of CFU/g (Listeria monocytogenes [1]; 2000 ppm ε-PL, after 24 hours): 2.27E+01 CFU/g
Log Reduction (Listeria monocytogenes [1]; 2000 ppm ε-PL, after 24 hours): 2.35
average Log Value (Listeria monocytogenes [1]; 3000 ppm ε-PL, after 1 week): <0.94
average of CFU/g (Listeria monocytogenes [1]; 3000 ppm ε-PL, after 1 week): <8.67E+00 CFU/g
Log Reduction (Listeria monocytogenes [1]; 3000 ppm ε-PL, after 1 week): >7.43
average Log Value (Listeria monocytogenes [1]; 3000 ppm ε-PL, after 2 weeks): <2.21
average of CFU/g (Listeria monocytogenes [1]; 3000 ppm ε-PL, after 2 weeks): <1.61E+02 CFU/g
Log Reduction (Listeria monocytogenes [1]; 3000 ppm ε-PL, after 2 weeks): <6.64
CFU/g (Listeria monocytogenes [1]; 3000 ppm ε-PL, after 3 weeks): <2.00E+00 CFU/g
average Log Value (Listeria monocytogenes [1]; 3000 ppm ε-PL, after 3 weeks): <0.30
average of CFU/g (Listeria monocytogenes [1]; 3000 ppm ε-PL, after 3 weeks): <2.00E+00 CFU/g
Log Reduction (Listeria monocytogenes [1]; 3000 ppm ε-PL, after 3 weeks): <7.98
average Log Value (Listeria monocytogenes [1]; 3000 ppm ε-PL, after 4 weeks): >3.56
average of CFU/g (Listeria monocytogenes [1]; 3000 ppm ε-PL, after 4 weeks): >3.61E+03 CFU/g
Log Reduction (Listeria monocytogenes [1]; 3000 ppm ε-PL, after 4 weeks): <5.02
CFU/g (Listeria monocytogenes [1]; 3000 ppm ε-PL, after 24 hours): 1.40E+01 CFU/g and 1.60E+01 CFU/g and 1.00E+01 CFU/g
average Log Value (Listeria monocytogenes [1]; 3000 ppm ε-PL, after 24 hours): 1.12
average of CFU/g (Listeria monocytogenes [1]; 3000 ppm ε-PL, after 24 hours): 1.33E+01 CFU/g
Log Reduction (Listeria monocytogenes [1]; 3000 ppm ε-PL, after 24 hours): 2.58
controlling the outgrowth of Listeria, ε-PL alone vs secondary acidic adjuvant spray for 5 sec (Listeria monocytogenes [1]; Tables 2.1-2.5): more effective in controlling the outgrowth of Listeria than the effect of a secondary spray application of the acidic adjuvant
CFU/dumpling (Listeria monocytogenes [2]; 1000 ppm ε-PL, after 1 hour): 3.80E+02 CFU/dumpling and 4.00E+02 CFU/dumpling and 2.00E+02 CFU/dumpling
average Log Value (Listeria monocytogenes [2]; 1000 ppm ε-PL, after 1 hour): 2.15
average of CFU/dumpling (Listeria monocytogenes [2]; 1000 ppm ε-PL, after 1 hour): 3.27E+02 CFU/dumpling
Log Reduction (Listeria monocytogenes [2]; 1000 ppm ε-PL, after 1 hour): 0.89
average Log Value (Listeria monocytogenes [2]; 1000 ppm ε-PL, after 24 hours): 2.32
average of CFU/dumpling (Listeria monocytogenes [2]; 1000 ppm ε-PL, after 24 hours): 2.10E+02 CFU/dumpling
Log Reduction (Listeria monocytogenes [2]; 1000 ppm ε-PL, after 24 hours): 2.42
post-lethality effect (Listeria monocytogenes [2]; 2000 ppm and above, limits of detection 10 CFU/piece): killed the Listeria down to the limits of detection
CFU/dumpling (Listeria monocytogenes [2]; 2000 ppm ε-PL, after 1 hour): <1.00E+01 CFU/dumpling
average Log Value (Listeria monocytogenes [2]; 2000 ppm ε-PL, after 1 hour): <1.00
average of CFU/dumpling (Listeria monocytogenes [2]; 2000 ppm ε-PL, after 1 hour): <1.00E+01 CFU/dumpling
Log Reduction (Listeria monocytogenes [2]; 2000 ppm ε-PL, after 1 hour): >2.41
CFU/dumpling (Listeria monocytogenes [2]; 2000 ppm ε-PL, after 24 hours): <1.00E+01 CFU/dumpling
average Log Value (Listeria monocytogenes [2]; 2000 ppm ε-PL, after 24 hours): <1.00
average of CFU/dumpling (Listeria monocytogenes [2]; 2000 ppm ε-PL, after 24 hours): <1.00E+01 CFU/dumpling
Log Reduction (Listeria monocytogenes [2]; 2000 ppm ε-PL, after 24 hours): >3.74
CFU/dumpling (Listeria monocytogenes [2]; 3000 ppm ε-PL, after 1 hour): <1.00E+01 CFU/dumpling
average Log Value (Listeria monocytogenes [2]; 3000 ppm ε-PL, after 1 hour): <1.00
average of CFU/dumpling (Listeria monocytogenes [2]; 3000 ppm ε-PL, after 1 hour): <1.00E+01 CFU/dumpling
Log Reduction (Listeria monocytogenes [2]; 3000 ppm ε-PL, after 1 hour): >2.41
CFU/dumpling (Listeria monocytogenes [2]; 3000 ppm ε-PL, after 24 hours): <1.00E+01 CFU/dumpling
average Log Value (Listeria monocytogenes [2]; 3000 ppm ε-PL, after 24 hours): <1.00
average of CFU/dumpling (Listeria monocytogenes [2]; 3000 ppm ε-PL, after 24 hours): <1.00E+01 CFU/dumpling
Log Reduction (Listeria monocytogenes [2]; 3000 ppm ε-PL, after 24 hours): >3.74
replication of Listeria monocytogenes (Listeria monocytogenes [2]; final concentration of 1000-3000 ppm in flour portion of dumpling): completely suppressed replication of Listeria monocytogenes

— patent US20060083830A1, “Polylysine-containing food additive and acidic adjuvant” (priority 2004, published 2006)
